# Measurements from US20040006236A1, “Diaminopropionic acid derivatives” (priority 1999, published 2004).
# How the values were obtained:
# [1] = system: T lymphocyte proliferation (C57BI/6 spleen cells with irradiated BALB/c spleen cells); experiment: Mixed lymphocyte reaction (MLR), one-way; format: cell-based, mice; details: Mus musculus, T-lymphocyte; read-out: MLR IC50
# Summary of the method: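 One-way murine MLR: C57BI/6 responder splenocytes proliferate against irradiated BALB/c stimulators while exposed to serially diluted antagonists in supplemented RPMI1640 for 3 days. Proliferation read as [3H]-thymidine uptake over a final 6 h pulse (0.5 μCi/well), scintillation counted.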
# [2] = target: T1, LFA-1 binding to immobilized ICAM-1 (Homo sapiens, UniProt P05107+P20701); experiment: LFA-1/ICAM-1 protein-protein assay (solid-phase ELISA); details: read-out: LFA-1/ICAM-1 Protein-Protein Assay IC50
# T1 construct: made in house; host or cells: transfected 293 cells (LFA-1)
# T1 sequence (P20701 26-1170): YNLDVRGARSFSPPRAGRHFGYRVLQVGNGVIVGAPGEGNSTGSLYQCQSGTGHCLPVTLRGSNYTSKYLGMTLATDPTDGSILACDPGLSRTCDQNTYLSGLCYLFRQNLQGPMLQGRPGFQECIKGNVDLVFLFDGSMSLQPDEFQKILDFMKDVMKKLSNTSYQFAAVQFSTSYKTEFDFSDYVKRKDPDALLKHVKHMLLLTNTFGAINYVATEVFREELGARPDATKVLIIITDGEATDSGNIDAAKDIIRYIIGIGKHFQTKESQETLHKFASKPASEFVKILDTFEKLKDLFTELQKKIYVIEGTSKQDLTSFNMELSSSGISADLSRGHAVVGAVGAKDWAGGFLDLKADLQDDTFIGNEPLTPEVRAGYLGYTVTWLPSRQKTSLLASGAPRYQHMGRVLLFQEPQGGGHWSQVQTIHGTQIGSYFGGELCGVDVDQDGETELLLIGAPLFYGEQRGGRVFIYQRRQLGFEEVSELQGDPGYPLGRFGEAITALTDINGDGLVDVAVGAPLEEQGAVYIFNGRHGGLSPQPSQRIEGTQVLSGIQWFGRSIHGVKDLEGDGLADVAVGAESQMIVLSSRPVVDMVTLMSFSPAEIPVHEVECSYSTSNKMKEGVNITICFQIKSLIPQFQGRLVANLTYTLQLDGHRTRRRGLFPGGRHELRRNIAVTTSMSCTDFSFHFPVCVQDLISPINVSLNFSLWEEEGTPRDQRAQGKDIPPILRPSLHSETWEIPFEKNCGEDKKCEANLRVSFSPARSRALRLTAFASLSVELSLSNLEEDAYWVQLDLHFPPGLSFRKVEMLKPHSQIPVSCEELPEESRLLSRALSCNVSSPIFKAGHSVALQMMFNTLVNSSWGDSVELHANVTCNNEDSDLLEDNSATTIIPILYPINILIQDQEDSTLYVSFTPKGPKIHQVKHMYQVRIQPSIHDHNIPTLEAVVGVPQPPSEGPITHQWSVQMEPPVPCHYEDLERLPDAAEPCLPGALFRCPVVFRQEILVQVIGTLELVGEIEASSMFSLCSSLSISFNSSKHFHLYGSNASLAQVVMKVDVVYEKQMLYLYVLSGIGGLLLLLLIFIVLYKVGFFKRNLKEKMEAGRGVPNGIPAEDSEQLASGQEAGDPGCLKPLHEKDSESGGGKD
# T1 sequence (P05107 23-769): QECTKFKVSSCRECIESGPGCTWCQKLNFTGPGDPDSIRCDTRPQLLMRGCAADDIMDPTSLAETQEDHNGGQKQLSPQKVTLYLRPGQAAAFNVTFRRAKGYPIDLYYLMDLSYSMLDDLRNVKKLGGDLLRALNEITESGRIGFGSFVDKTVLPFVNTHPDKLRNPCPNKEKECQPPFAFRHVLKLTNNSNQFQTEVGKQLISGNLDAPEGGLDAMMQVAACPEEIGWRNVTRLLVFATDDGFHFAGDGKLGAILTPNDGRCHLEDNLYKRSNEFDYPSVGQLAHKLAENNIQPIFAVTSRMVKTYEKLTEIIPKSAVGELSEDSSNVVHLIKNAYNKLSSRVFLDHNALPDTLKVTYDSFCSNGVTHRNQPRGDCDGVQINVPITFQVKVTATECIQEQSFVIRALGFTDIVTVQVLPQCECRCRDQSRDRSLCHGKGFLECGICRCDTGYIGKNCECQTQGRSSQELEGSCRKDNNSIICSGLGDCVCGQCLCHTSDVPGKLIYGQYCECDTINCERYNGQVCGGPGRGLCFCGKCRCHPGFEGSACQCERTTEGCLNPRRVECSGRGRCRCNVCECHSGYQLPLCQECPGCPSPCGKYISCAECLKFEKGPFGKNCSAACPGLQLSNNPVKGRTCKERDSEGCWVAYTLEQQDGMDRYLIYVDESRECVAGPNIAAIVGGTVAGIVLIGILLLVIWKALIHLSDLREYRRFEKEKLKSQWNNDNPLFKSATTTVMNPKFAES
# Summary of the method: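 Human 5dICAM-Ig (ICAM-1 extracellular domain–IgG Fc) coated on plates; membrane-bound LFA-1 from transfected 293 cells (280 ng/mL) added with compound in Mn2+-containing HEPES buffer pH 7.2, 2 h at 37° C. Bound LFA-1 detected via anti-β2 antibody and HRP/TMB at 450 nm; IC50s determined.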
compound,measurement,setting,value
O=C(CC1CCCC1)NC[C@H](NC(=O)c1ccc(C(=O)NCc2cccc(O)c2)cc1Cl)C(=O)O [Example 77],IC50,[1],700 nM
same,IC50,[2],2.1 nM
